Results: patent publication US8471005B2 (Cephalon, Inc., priority 2008, dated 2013)
Where two headings read alike, the source gives them in different places.

Experiments:
JAK2 = molecular target: T1, JAK2 (Homo sapiens, UniProt O60674); test: Recombinant Human JAK2 Kinase Assay (TRF); assay type: biochemical; details: read-out: JAK2 Potency
T1 construct: host or cells: baculovirus expression system
Outline: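 Baculovirus-expressed JAK2 (15 ng/ml) phosphorylated a biotinylated 15-mer peptide captured on Neutravidin, in 20 mM HEPES pH 7.2, 0.2 μM ATP, 1 mM MnCl2, 0.1% BSA, 2.5% DMSO final, 20 min at room temperature. Phosphoproduct detected by time-resolved fluorescence with Eu-N1-labelled PY100 antibody.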

ALK = molecular target: T2, ALK (Homo sapiens, UniProt Q9UM73); test: ALK Kinase Assay (ELISA/TRF, PLC-γ substrate); assay type: biochemical; details: read-out: ALK Potency
T2 construct: host or cells: baculovirus expression system
Outline: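 IC50 values derive from percent inhibition plotted against log10 compound concentration and fitted to a variable-slope sigmoidal equation. The underlying reaction used 30 ng/ml ALK acting on immobilized PLC-γ (10 μg/mL in TBS) at 37° C for 15 minutes, read with Eu-N1 PT66 antibody.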

[1] = JAK2 kinase inhibition, 0.2 μM ATP
[2] = ALK kinase inhibition, 1 μM ATP

T2 sequence (Q9UM73 19-1620): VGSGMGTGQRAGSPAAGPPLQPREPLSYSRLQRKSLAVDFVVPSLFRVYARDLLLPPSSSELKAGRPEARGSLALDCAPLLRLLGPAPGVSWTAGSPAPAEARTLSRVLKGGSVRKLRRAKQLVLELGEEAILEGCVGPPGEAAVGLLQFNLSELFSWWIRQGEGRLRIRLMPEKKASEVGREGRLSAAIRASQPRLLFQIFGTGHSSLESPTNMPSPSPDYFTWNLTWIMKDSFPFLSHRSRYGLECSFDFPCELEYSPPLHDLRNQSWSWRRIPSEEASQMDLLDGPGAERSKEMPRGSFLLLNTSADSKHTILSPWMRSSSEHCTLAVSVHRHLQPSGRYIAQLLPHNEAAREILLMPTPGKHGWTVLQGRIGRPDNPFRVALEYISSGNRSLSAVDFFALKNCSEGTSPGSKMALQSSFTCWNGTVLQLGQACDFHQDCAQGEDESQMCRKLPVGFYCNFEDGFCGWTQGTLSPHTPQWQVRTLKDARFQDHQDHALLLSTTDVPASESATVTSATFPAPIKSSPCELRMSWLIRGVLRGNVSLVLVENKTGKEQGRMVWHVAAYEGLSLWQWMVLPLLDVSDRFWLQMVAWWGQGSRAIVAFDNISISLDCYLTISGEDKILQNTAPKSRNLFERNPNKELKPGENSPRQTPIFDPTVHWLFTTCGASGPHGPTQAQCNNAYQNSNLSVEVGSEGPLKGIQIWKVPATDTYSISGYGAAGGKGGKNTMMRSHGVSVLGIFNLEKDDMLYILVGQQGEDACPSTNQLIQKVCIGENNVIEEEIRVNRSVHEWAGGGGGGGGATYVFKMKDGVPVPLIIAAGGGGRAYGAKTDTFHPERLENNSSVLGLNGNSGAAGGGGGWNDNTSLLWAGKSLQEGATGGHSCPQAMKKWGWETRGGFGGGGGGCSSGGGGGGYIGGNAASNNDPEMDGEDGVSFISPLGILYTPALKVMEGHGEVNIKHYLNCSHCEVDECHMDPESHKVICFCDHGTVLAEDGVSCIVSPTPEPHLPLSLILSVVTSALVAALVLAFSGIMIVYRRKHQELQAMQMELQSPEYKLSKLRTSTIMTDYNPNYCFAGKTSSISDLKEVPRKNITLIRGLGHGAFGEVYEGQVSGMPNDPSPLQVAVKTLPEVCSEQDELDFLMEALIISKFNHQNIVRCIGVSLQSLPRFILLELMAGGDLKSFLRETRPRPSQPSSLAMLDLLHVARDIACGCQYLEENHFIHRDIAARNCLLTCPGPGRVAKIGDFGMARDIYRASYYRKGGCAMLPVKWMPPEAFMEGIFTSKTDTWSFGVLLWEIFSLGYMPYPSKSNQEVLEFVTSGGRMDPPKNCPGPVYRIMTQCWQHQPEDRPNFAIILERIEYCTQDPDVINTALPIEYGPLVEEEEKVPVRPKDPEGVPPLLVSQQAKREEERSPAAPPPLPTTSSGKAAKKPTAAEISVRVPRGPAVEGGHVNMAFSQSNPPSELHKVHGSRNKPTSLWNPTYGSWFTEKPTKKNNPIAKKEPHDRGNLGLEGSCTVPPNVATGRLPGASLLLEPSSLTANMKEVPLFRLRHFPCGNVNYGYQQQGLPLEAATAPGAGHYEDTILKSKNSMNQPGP
T1 sequence (O60674 whole entry): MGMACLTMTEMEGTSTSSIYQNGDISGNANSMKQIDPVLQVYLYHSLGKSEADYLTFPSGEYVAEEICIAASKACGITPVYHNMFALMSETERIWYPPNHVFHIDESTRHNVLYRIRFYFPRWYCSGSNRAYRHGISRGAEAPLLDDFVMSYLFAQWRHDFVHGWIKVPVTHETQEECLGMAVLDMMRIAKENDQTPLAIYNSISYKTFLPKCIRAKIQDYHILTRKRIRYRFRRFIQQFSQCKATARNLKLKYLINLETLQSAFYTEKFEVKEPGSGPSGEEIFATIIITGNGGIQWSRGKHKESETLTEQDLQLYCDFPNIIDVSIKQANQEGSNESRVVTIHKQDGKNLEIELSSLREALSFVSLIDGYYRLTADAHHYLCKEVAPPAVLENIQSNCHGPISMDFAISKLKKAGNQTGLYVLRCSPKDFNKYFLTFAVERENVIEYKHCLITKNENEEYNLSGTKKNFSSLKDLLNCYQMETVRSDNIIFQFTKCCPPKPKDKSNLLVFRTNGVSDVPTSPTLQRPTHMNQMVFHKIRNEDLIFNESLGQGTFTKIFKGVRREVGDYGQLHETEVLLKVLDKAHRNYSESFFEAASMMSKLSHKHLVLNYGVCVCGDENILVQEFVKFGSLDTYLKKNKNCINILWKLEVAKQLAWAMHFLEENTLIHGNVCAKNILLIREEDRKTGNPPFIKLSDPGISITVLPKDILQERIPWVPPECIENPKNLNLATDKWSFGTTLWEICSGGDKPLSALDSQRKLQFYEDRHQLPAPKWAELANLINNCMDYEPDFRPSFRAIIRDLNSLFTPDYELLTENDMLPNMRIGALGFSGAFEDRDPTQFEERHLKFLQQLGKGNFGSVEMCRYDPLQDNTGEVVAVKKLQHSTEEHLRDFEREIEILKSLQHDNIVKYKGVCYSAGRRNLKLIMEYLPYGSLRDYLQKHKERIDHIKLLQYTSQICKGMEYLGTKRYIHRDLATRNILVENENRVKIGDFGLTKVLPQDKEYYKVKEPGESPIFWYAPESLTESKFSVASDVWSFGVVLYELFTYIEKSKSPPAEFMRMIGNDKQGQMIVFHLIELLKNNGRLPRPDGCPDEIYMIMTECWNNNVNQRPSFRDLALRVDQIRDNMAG

Question: With `CC(=O)Nc1cc(Nc2ncc3ccc(-c4cccc(Cl)c4)n3n2)ccc1C(C)(C)C` [Example 307, N-{2-tert-Butyl-5-[7-(3-chloro-phenyl)-pyrrolo[2,1-f][1,2,4]triazin-2-ylamino]-phenyl}-acetamide] as the molecule, how does the IC50 (JAK2; JAK2 Kinase Inhibition) read?
Answer: The IC50 was less than 100 nM.

Question: What about the IC50 (ALK; ALK Kinase Inhibition) of the same molecule?
Answer: The IC50 was greater than 10000 nM.

Question: With `CN1CCN(c2ccc(Nc3ncc4c(Br)cc(Br)n4n3)cc2)CC1` [Example 84, (5,7-Dibromo-pyrrolo[2,1-f][1,2,4]triazin-2-yl)-[4-(4-methyl-piperazin-1-yl)-phenyl]-amine] as the molecule, how does the IC50 (JAK2; JAK2 Kinase Inhibition) read?
Answer: Its IC50 is less than 100 nM.

Question: What about the IC50 (ALK; ALK Kinase Inhibition) of the same molecule?
Answer: The IC50 was 1000 to 10000 nM.

Question: For `CN1CCN(CCn2cc(Nc3ncc4ccc(-c5cnn(C)c5)n4n3)cn2)CC1` [Example 1213, {1-[2-(4-Methyl-piperazin-1-yl)-ethyl]-1H-pyrazol-4-yl}-[7-(1-methyl-1H-pyrazol-4-yl)-pyrrolo[2,1-f][1,2,4]triazin-2-yl]-amine], which IC50 (JAK2; [1]) is on record?
Answer: The IC50 was less than 100 nM.

Question: What about the IC50 (ALK; [2]) of the same molecule?
Answer: Its IC50 is 100 to 1000 nM.

Question: Which results are given for `Clc1cccc(-c2ccc3cnc(Nc4ccc(N5CCCC5)cc4)nn23)c1` [Example 167, [7-(3-Chloro-phenyl)-pyrrolo[2,1-f][1,2,4]triazin-2-yl]-(4-pyrrolidin-1-yl-phenyl)-amine]?
Answer: IC50 (JAK2; JAK2 Kinase Inhibition): < 100 nM; IC50 (ALK; ALK Kinase Inhibition): 1000 to 10000 nM

Question: `Clc1cccc(-c2ccc3cnc(Nc4ccc(N5CCOCC5)cc4)nn23)c1` [Example 1, [7-(3-Chloro-phenyl)-pyrrolo[2,1-f][1,2,4]triazin-2-yl]-(4-morpholin-4-yl-phenyl)-amine] was tested. Which IC50 (JAK2; JAK2 Kinase Inhibition) did it give?
Answer: The IC50 was less than 100 nM.

Question: And the IC50 (ALK; ALK Kinase Inhibition)?
Answer: Its IC50 is greater than 10000 nM.

Question: What does the source list for `COc1ccccc1-c1ccn2nc(Nc3ccc(N4CCN(C)CC4)cc3)ncc12` [Example 42, [5-(2-Methoxy-phenyl)-pyrrolo[2,1-f][1,2,4]triazin-2-yl]-[4-(4-methyl-piperazin-1-yl)-phenyl]-amine]?
Answer: IC50 (JAK2; JAK2 Kinase Inhibition): 100 to 1000 nM; IC50 (ALK; ALK Kinase Inhibition): > 10000 nM

Question: What does the source list for `CN1CCN(c2ccc(Nc3ncc4ccc(-c5cccc(C(=O)OC(C)(C)C)c5)n4n3)cc2)CC1` [Example 1143, 3-{2-[4-(4-Methyl-piperazin-1-yl)-phenylamino]-pyrrolo[2,1-f][1,2,4]triazin-7-yl}-benzoic acid tert-butyl ester]?
Answer: IC50 (JAK2; [1]): < 100 nM; IC50 (ALK; [2]): 100 to 1000 nM

Question: What does the source list for `C[C@H](O)CN1CCC(c2ccc(Nc3ncc4ccc(-c5ccc(S(C)(=O)=O)cc5)n4n3)cc2)CC1` [Example 1432, (S)-1-(4-{4-[7-(4-Methanesulfonyl-phenyl)-pyrrolo[2,1-f][1,2,4]triazin-2-ylamino]-phenyl}-piperidin-1-yl)-propan-2-ol]?
Answer: IC50 (JAK2; JAK2 Kinase Inhibition): < 100 nM; IC50 (ALK; ALK Kinase Inhibition): < 100 nM

Question: Which IC50 (JAK2; [1]) does the source give for `COc1cc([C@@H]2CCN(C(=O)OC(C)(C)C)C[C@@H]2O)ccc1Nc1ncc2ccc(-c3ccccc3OC)n2n1` (racemic) [Example 834, (±)-(3R,4S)-3-Hydroxy-4-{3-methoxy-4-[7-(2-methoxy-phenyl)-pyrrolo[2,1-f][1,2,4]triazin-2-ylamino]-phenyl}-piperidine-1-carboxylic acid tert-butyl ester] here?
Answer: The IC50 was 100 to 1000 nM.

Question: What about the IC50 (ALK; [2]) of the same molecule?
Answer: Its IC50 is 100 to 1000 nM.

Question: Which results are given for `O=S1(=O)CCCN1c1cccc(-c2ccc3cnc(Nc4ccc5c(c4)CCC(N4CCOCC4)CC5)nn23)c1` (stereo not shown) [Example 1507, 7-[3-(1,1-Dioxido-1,2-thiazolidin-2-yl)phenyl]-N-[7-(morpholin-4-yl)-6,7,8,9-tetrahydro-5H-benzo[7]annulen-2-yl]pyrrolo[2,1-f][1,2,4]triazin-2-amine]?
Answer: IC50 (JAK2; JAK2 Kinase Inhibition): < 100 nM; IC50 (ALK; ALK Kinase Inhibition): 100 to 1000 nM

Question: For `COc1ccc(-c2cc(Cl)c3cnc(Nc4ccc(C5CCN(CC(N)=O)CC5)cc4)nn23)cn1` [Example 1555, 2-(4-{4-[5-Chloro-7-(6-methoxy-pyridin-3-yl)-pyrrolo[2,1-f][1,2,4]triazin-2-ylamino]-phenyl}-piperidin-1-yl)-acetamide], which IC50 (JAK2; JAK2 Kinase Inhibition) is on record?
Answer: The IC50 was less than 100 nM.

Question: And the IC50 (ALK; ALK Kinase Inhibition)?
Answer: The IC50 was 100 to 1000 nM.

Question: How did the IC50 (JAK2; [1]) turn out when `COc1ccccc1-c1ccc2cnc(Nc3ccc4nc(CO)[nH]c4c3)nn12` [Example 1067, {6-[7-(2-Methoxy-phenyl)-pyrrolo[2,1-f][1,2,4]triazin-2-ylamino]-1H-benzoimidazol-2-yl}-methanol] was run?
Answer: The IC50 was less than 100 nM.

Question: And the IC50 (ALK; [2])?
Answer: The IC50 was 100 to 1000 nM.

Question: For `CC(C)c1nc2ccc(Nc3ncc4ccc(-c5cccc(S(=O)(=O)NC(C)(C)C)c5)n4n3)cc2[nH]1` [Example 1329, N-tert-Butyl-3-[2-(2-isopropyl-3H-benzimidazol-5-ylamino)-pyrrolo[2,1-f][1,2,4]triazin-7-yl]-benzenesulfonamide], which IC50 (JAK2; [1]) is on record?
Answer: Its IC50 is less than 100 nM.

Question: What about the IC50 (ALK; [2]) of the same molecule?
Answer: The IC50 was 1000 to 10000 nM.

Question: Which IC50 (JAK2; [1]) does the source give for `COc1ccc(CN2CCOCC2)cc1Nc1ncc2ccc(-c3ccccc3N(C)S(C)(=O)=O)n2n1` [Example 498, N-{2-[2-(2-Methoxy-5-morpholin-4-ylmethyl-phenylamino)-pyrrolo[2,1-f][1,2,4]triazin-7-yl]-phenyl}-N-methyl-methanesulfonamide] here?
Answer: Its IC50 is 1000 to 10000 nM.

Question: And the IC50 (ALK; [2])?
Answer: The IC50 was 1000 to 10000 nM.

Question: Which IC50 (JAK2; [1]) does the source give for `COc1cc(N2CCN(C[C@H](C)O)CC2)ccc1Nc1ncc2ccc(-c3cccc4c3OCCO4)n2n1` [Example 547, (S)-1-(4-{4-[7-(2,3-Dihydro-1,4-benzodioxin-5-yl)-pyrrolo[2,1-f][1,2,4]triazin-2-ylamino]-3-methoxy-phenyl}-piperazin-1-yl)-propan-2-ol] here?
Answer: The IC50 was less than 100 nM.

Question: What about the IC50 (ALK; [2]) of the same molecule?
Answer: The IC50 was less than 100 nM.

Question: Which results are given for `CN(c1ccccc1-c1cc(Cl)c2cnc(Nc3ccc(C4CCN(CC(N)=O)CC4)cc3)nn12)S(C)(=O)=O` [Example 1553, 2-[4-(4-{5-Chloro-7-[2-(methanesulfonyl-methyl-amino)-phenyl]-pyrrolo[2,1-f][1,2,4]triazin-2-ylamino}-phenyl)-piperidin-1-yl]-acetamide]?
Answer: IC50 (JAK2; JAK2 Kinase Inhibition): < 100 nM; IC50 (ALK; ALK Kinase Inhibition): < 100 nM

Question: For `COc1ccc(-c2ccc3cnc(Nc4cccc(C5CNCCN5)c4)nn23)cn1` (stereo not shown) [Example 1566, [7-(6-Methoxy-pyridin-3-yl)-pyrrolo[2,1-f][1,2,4]triazin-2-yl]-(3-piperazin-2-yl-phenyl)-amine], which IC50 (JAK2; JAK2 Kinase Inhibition) is on record?
Answer: Its IC50 is less than 100 nM.

Question: What about the IC50 (ALK; ALK Kinase Inhibition) of the same molecule?
Answer: Its IC50 is 1000 to 10000 nM.

Question: `COc1cc(C2CCN(CCO)CC2)ccc1Nc1ncc2ccc(-c3cccc(S(=O)(=O)NC4CC4)c3)n2n1` [Example 698] was tested. Which IC50 (JAK2; [1]) did it give?
Answer: Its IC50 is 100 to 1000 nM.

Question: And the IC50 (ALK; [2])?
Answer: The IC50 was less than 100 nM.

Question: `c1ccc(-c2ccc3cnc(Nc4ccc(N5CCOCC5)cc4)nn23)cc1` [Example 2, (4-Morpholin-4-yl-phenyl)-(7-phenyl-pyrrolo[2,1-f][1,2,4]triazin-2-yl)amine] was tested. Which IC50 (JAK2; JAK2 Kinase Inhibition) did it give?
Answer: Its IC50 is less than 100 nM.

Question: And the IC50 (ALK; ALK Kinase Inhibition)?
Answer: The IC50 was 100 to 1000 nM.

Question: What does the source list for `Cn1cc(-c2ccc3cnc(Nc4ccc(N5CCOCC5)cc4)nn23)cn1` [Example 10, [7-(1-Methyl-1H-pyrazol-4-yl)-pyrrolo[2,1-f][1,2,4]triazin-2-yl]-(4-morpholin-4-yl-phenyl)-amine]?
Answer: IC50 (JAK2; JAK2 Kinase Inhibition): < 100 nM; IC50 (ALK; ALK Kinase Inhibition): 1000 to 10000 nM

Question: What does the source list for `CN1CCc2ccc(Nc3ncc4c(-c5ccc(F)cc5)ccn4n3)cc2C1` [Example 728, [5-(4-Fluoro-phenyl)-pyrrolo[2,1-f][1,2,4]triazin-2-yl]-(2-methyl-1,2,3,4-tetrahydro-isoquinolin-7-yl)-amine]?
Answer: IC50 (JAK2; [1]): 1000 to 10000 nM; IC50 (ALK; [2]): > 10000 nM

Question: With `COc1cc(N2CCC(N(C)C)CC2)ccc1Nc1ncc2ccc(-c3ccc(S(C)(=O)=O)cc3)n2n1` [Example 477, [4-(4-Dimethylamino-piperidin-1-yl)-2-methoxy-phenyl]-[7-(4-methanesulfonyl-phenyl)-pyrrolo[2,1-f][1,2,4]triazin-2-yl]-amine] as the molecule, how does the IC50 (JAK2; [1]) read?
Answer: The IC50 was less than 100 nM.

Question: And the IC50 (ALK; [2])?
Answer: Its IC50 is less than 100 nM.

Question: Which IC50 (JAK2; [1]) does the source give for `COc1cc2c(cc1Nc1ncc3ccc(-c4ccccc4OC)n3n1)CN(C(=O)CN)C2` [Example 878, 2-Amino-1-{5-methoxy-6-[7-(2-methoxy-phenyl)-pyrrolo[2,1-f][1,2,4]triazin-2-ylamino]-1,3-dihydro-isoindol-2-yl}-ethanone] here?
Answer: The IC50 was less than 100 nM.

Question: What about the IC50 (ALK; [2]) of the same molecule?
Answer: The IC50 was less than 100 nM.
